Data from patent US5939385A, “Transglutaminase cross-linkable polypeptides and methods relating thereto” (ZymoGenetics, Inc., priority 1995, dated 1999).
No end group written: not given here.

Biological target: T1, recombinant Factor XIII (rFXIIIa) (Homo sapiens, UniProt P00488)
T1 construct: made in house
T1 sequence (P00488 39-732 limits assumed): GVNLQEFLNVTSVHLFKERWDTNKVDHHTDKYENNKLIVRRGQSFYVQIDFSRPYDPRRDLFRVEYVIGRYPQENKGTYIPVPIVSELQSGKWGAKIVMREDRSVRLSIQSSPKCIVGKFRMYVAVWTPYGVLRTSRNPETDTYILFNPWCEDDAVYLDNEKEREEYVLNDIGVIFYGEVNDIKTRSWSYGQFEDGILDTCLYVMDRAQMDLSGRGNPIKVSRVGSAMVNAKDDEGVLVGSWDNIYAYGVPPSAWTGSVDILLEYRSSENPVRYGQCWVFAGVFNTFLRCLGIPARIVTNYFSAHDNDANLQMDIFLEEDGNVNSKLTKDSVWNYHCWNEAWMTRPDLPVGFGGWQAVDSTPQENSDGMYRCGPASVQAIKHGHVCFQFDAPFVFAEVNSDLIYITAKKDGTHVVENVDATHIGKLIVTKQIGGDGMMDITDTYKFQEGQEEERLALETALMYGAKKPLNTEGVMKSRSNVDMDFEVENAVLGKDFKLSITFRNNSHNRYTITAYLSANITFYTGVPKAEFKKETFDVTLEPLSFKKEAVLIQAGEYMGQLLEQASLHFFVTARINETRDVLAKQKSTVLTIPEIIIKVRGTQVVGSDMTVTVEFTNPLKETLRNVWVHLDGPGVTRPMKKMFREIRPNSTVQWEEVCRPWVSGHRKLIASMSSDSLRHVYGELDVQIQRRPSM
Test: Factor XIII cross-linking assay of test polypeptide substrates (HPLC area % vs time)
Assay type: biochemical
Description: Polypeptides are screened for the ability to form transglutaminase-catalyzed cross-links using a cross-linking assay as described in more detail below. […] Each reaction receives 50 mM CaCl2 to a final concentration of 2.5 mM. A negative control for each test substrate is also prepared in which the reaction lacks a transglutaminase (e.g., Factor XIII). A positive control of the fibrinogen polypeptide (The-Ile-Gly-Glu-Gly-Gln-Gln-His-His-Leu-[…]-Gln-Ala-Gly-Asp-Val) is used for each set of reactions. The reactions are initiated by the addition of 40 μg/ml of transglutaminase (e.g., recombinant Factor XIII) followed by 0.1 unit of bovine thrombin (Enzyme Research Laboratories, Inc., South Bend, Ind.) to each solution, except the negative controls. The reactions are incubated in a 37° C. water bath. A time course of 10 μl samples are taken from each reaction at 0 minutes, 30 minutes, 60 minutes, 120 minutes and overnight. The reactions are stopped by boiling for one minute. After the reactions are terminated, each sample is diluted to 50 μl with 40 μl of TBS buffer (120 mM NaCl, 50 mM Tris (pH 7.6)) and the samples are prepared for HPLC analysis.
Each sample is chromatographed on a C-18 reverse phase HPLC column (Vydac, Hesperia, Calif. or the like) using a gradient of 0-40% B in 30 minutes (Solvent A: 0.05% trifluoroacetic acid (TFA) in water and Solvent B: 0.045% TFA in 80% acetonitrile, 20% water) on a Hewlett Packard 1090 Series II HPLC or the like. The signal is detected at a wavelength of 215 nm. The area % of each reaction product is collected and plotted versus time to determine the rates of polypeptide utilization dimer formation and multimer formation. A deamidation ratio is determined by dividing the deamidation rate by the dimerization rate.
The ability of the test polypeptides to form Factor XIII-induced multimers, and the susceptibility of the polypeptides to deamidation were assessed using the method described in detail below.
Approximately 0.5 mg of lyophilized polypeptide was dissolved in 50 mM Tris, 125 mM NaCl (pH 7.6) to give a final concentration of 2 mM by weight. […] Each test polypeptide solution received 50 mM CaCl2 to a final concentration of 2.5 mM. For each reaction, a negative control lacking Factor XIII was included. A positive control of the fibrinogen polypeptide Thr-Ile-Gly-Glu-Gly-Gln-Gln-His-His-Leu-Gly-Gly-Ala-Lys-Gln-Ala-Gly-Asp-Val was used for each set of reactions. The reactions were initiated by the addition of 40 μg/ml of recombinant Factor XIII followed by 0.1 unit of bovine thrombin (Enzyme Research Laboratories, Inc.) to each solution, except the negative controls. The reactions were incubated in a 37° C. water bath. Samples of 10 μl were taken from each reaction at 0 minutes, 30 minutes, 60 minutes, 120 minutes and overnight. The reactions were stopped by boiling for one minutes. The samples were diluted to 50 μl TBS buffer (120 mM NaCl, 50 mM Tris (pH 7.6)), and the samples were prepared for HPLC analysis.
Each reaction was chromatographed on a C-18 reverse phase HPLC column (Vydac, Hesperia, Calif., or the like) using a gradient of 0-40% B in 30 minutes (solvent A: 0.05% TFA in water and Solvent B: 0.045% TFA in 80% acetonitrile/20% water) on a Hewlett Packard 1090 Series II HPLC. The signal was detected at a wavelength of 215 nm. The area % of each reaction product was collected and plotted versus time to determine the rates of polypeptide utilization and dimer formation. A deamidation ratio was determined by dividing the deamidation rate by the dimerization rate. […] The abbreviations used in Table 1 are as follows: d[S]/dt indicates the rate of substrate utilization, d[S2 ]/dt indicates the rate of dimer formation and (-NH2 /S2) indicates the relative rates of deamidation to dimerization. The initial rates were normalized to that of the fibrinogen polypeptide Thr-Ile-Gly-Glu-Gly-Gln-Gln-His-His-Leu-Gly-Gly-Ala-Lys-Gln-Ala-Gly-Asp-Val. […]

[1] = initial rate, 2mM substrate, 40 ug/ml rFXIIIa (preactivated), 2.0 U/ml Thrombin, 2.5 mM CaCl2, pH 7.4

For “VPGVGQHHLGGAKVPGVG [VPGVGQ-- HHLGGAKVPGVG]”, the “Monomer Consumption d[S]/dt (rate of substrate utilization)” value (initial rate, 2mM substrate, 40 ug/ml rFXIIIa (preactivated), 2.0 U/ml Thrombin, 2.5 mM CaCl2, 125 mM NaCl, 50 mM TrisHCl, pH 7.4) was -20.8 uM (monomer)/min, the “Crosslinking d(2[S-])/dt (rate of monomer incorporation into dimers)” value [1] was 15.8 uM (monomer)/min and the “Hydrolysis d[-NH3]/dt (hydrolysis = deamidation)” value [1] was 1.8 uM (monomer)/min. For the same sequence, the Hydrolysis % (share of hydrolysis (deamidation) relative to hydrolysis plus crosslinking, same reaction conditions) was 10%.
